Laboratory results from PubChem BioAssay (NCI).
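Where inhibition never reached the appropriate level, the endpoint shown equals the highest concentration tested. Otherwise, values were interpolated linearly from a five-concentration, 48-hour dose response in 96-well plates. TGI denotes the concentration required for complete inhibition of growth.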

How the values were obtained:
Assay in all cases: NCI-60 cell line screen, 48 h
[1] = test system: 786-0 renal
[2] = test system: A498 renal
[3] = test system: A549 NSCLC
[4] = test system: ACHN renal
[5] = test system: BT-549 breast
[6] = test system: CAKI-1 renal
[7] = test system: CCRF-CEM leukemia
[8] = test system: COLO 205 colon
[9] = test system: DU-145 prostate
[10] = test system: EKVX NSCLC
[11] = test system: HCC-2998 colon
[12] = test system: HCT-116 colon
[13] = test system: HCT-15 colon
[14] = test system: HL-60(TB) leukemia
[15] = test system: HOP-62 NSCLC
[16] = test system: HOP-92 NSCLC
[17] = test system: HS 578T breast
[18] = test system: HT29 colon
[19] = test system: IGROV1 ovarian
[20] = test system: K-562 leukemia
[21] = test system: KM12 colon
[22] = test system: LOX IMVI melanoma
[23] = test system: M14 melanoma
[24] = test system: MALME-3M melanoma
[25] = test system: MCF7 breast
[26] = test system: MDA-MB-231 breast
[27] = test system: MDA-MB-435
[28] = test system: MDA-N
[29] = test system: MOLT-4 leukemia
[30] = test system: NCI-H226 lung
[31] = test system: NCI-H23 lung
[32] = test system: NCI-H460 lung
[33] = test system: NCI-H522 lung
[34] = test system: NCI/ADR-RES ovarian
[35] = test system: OVCAR-3 ovarian
[36] = test system: OVCAR-4 ovarian
[37] = test system: OVCAR-5 ovarian
[38] = test system: OVCAR-8 ovarian
[39] = test system: PC-3 prostate
[40] = test system: RPMI-8226 leukemia
[41] = test system: RXF 393 renal
[42] = test system: SF-268 CNS
[43] = test system: SF-295 CNS
[44] = test system: SF-539 CNS
[45] = test system: SK-MEL-2 melanoma
[46] = test system: SK-MEL-28 melanoma
[47] = test system: SK-MEL-5 melanoma
[48] = test system: SK-OV-3 ovarian
[49] = test system: SN12C renal
[50] = test system: SNB-19 CNS
[51] = test system: SNB-75 CNS
[52] = test system: SR leukemia
[53] = test system: SW-620 colon
[54] = test system: T-47D breast
[55] = test system: TK-10 renal
[56] = test system: U251 CNS
[57] = test system: UACC-257 melanoma
[58] = test system: UACC-62 melanoma
[59] = test system: UO-31 renal

`CC(C)OP(=O)(OC(C)C)/C(C#N)=C/c1c[nH]c2ccccc12` was tested, and the TGI [1] was > 100 µM, the TGI [2] was > 100 µM and the TGI [3] was > 100 µM. The TGI [4] was > 100 µM, the TGI [5] was 89.3 µM and the TGI [6] was > 100 µM. For the same molecule, the TGI [7] was > 100 µM, the TGI [8] was > 100 µM and the TGI [9] was > 100 µM. For the same molecule, the TGI [10] was > 100 µM, the TGI [11] was > 100 µM and the TGI [12] was > 100 µM. For the same molecule, the TGI [13] was > 100 µM, the TGI [14] was > 100 µM and the TGI [15] was > 100 µM. For the same molecule, the TGI [16] was > 100 µM, the TGI [17] was > 100 µM and the TGI [18] was > 100 µM. For the same molecule, the TGI [19] was > 100 µM, the TGI [20] was > 100 µM and the TGI [21] was > 100 µM. For the same molecule, the TGI [22] was > 100 µM, the TGI [23] was > 100 µM and the TGI [24] was > 100 µM. For the same molecule, the TGI [25] was > 100 µM, the TGI [26] was > 100 µM and the TGI [27] was > 100 µM. The TGI [28] was > 100 µM, the TGI [29] was > 100 µM and the TGI [30] was > 100 µM. For the same molecule, the TGI [31] was > 100 µM, the TGI [32] was > 100 µM and the TGI [33] was > 100 µM. For the same molecule, the TGI [34] was > 100 µM, the TGI [35] was > 100 µM and the TGI [36] was > 100 µM. The TGI [37] was > 100 µM, the TGI [38] was > 100 µM and the TGI [39] was > 100 µM. The TGI [40] was > 100 µM, the TGI [41] was > 100 µM and the TGI [42] was > 100 µM. The TGI [43] was > 100 µM, the TGI [44] was > 100 µM and the TGI [45] was > 100 µM. The TGI [46] was > 100 µM, the TGI [47] was > 100 µM and the TGI [48] was > 100 µM. The TGI [49] was > 100 µM, the TGI [50] was > 100 µM and the TGI [51] was > 100 µM. The TGI [52] was > 100 µM, the TGI [53] was > 100 µM and the TGI [54] was > 100 µM. The TGI [55] was > 100 µM, the TGI [56] was > 100 µM and the TGI [57] was > 100 µM. For the same molecule, the TGI [58] was > 100 µM.
Molecule `C=C1CC(O)C2C(=C)C(=O)OC2C2C(C)C(=O)CC12` (stereo not drawn) has a TGI [2] of 63.3 µM, a TGI [3] of 41 µM and a TGI [4] of 17.9 µM. For the same molecule, the TGI [5] was 21.5 µM, the TGI [6] was 16.6 µM and the TGI [7] was 41.4 µM. For the same molecule, the TGI [8] was 43.5 µM, the TGI [9] was 46.8 µM and the TGI [10] was 35.6 µM. The TGI [11] was 34.4 µM, the TGI [12] was > 100 µM and the TGI [13] was 17.1 µM. The TGI [14] was 9.43 µM, the TGI [15] was 42.7 µM and the TGI [16] was 33.8 µM. For the same molecule, the TGI [17] was 63.2 µM, the TGI [18] was 42.8 µM and the TGI [19] was 36.2 µM. The TGI [20] was 28.7 µM, the TGI [21] was 56.9 µM and the TGI [22] was 80.2 µM. It also gave a TGI [23] of 25.6 µM, a TGI [24] of 31.5 µM and a TGI [25] of 26.2 µM. It also gave a TGI [26] of 35.4 µM, a TGI [27] of 33.1 µM and a TGI [28] of 20.3 µM. It also gave a TGI [29] of 39.2 µM, a TGI [31] of 31.8 µM and a TGI [32] of 58 µM. The TGI [33] was 19.9 µM, the TGI [34] was 49.7 µM and the TGI [35] was 24 µM. The TGI [36] was 37.8 µM, the TGI [37] was 30.1 µM and the TGI [38] was 50.9 µM. For the same molecule, the TGI [39] was > 100 µM, the TGI [40] was 39.2 µM and the TGI [41] was 17.4 µM. The TGI [42] was 45.7 µM, the TGI [43] was 68.9 µM and the TGI [44] was 54.2 µM. For the same molecule, the TGI [45] was 38.2 µM, the TGI [46] was 46.5 µM and the TGI [47] was 47 µM. The TGI [48] was > 100 µM, the TGI [49] was 29.9 µM and the TGI [50] was 38.5 µM. The TGI [51] was 30.3 µM, the TGI [52] was 53.2 µM and the TGI [53] was 30.7 µM. For the same molecule, the TGI [54] was 73 µM, the TGI [55] was 18.7 µM and the TGI [56] was 59.1 µM. The TGI [57] was 26.5 µM, the TGI [58] was 29.1 µM and the TGI [59] was 28 µM.
For `COC(=O)/C=C\C(C#N)(C#N)N=Cc1ccc(Br)cc1`, the TGI [1] was > 48.9 µM, the TGI [2] was 29.8 µM and the TGI [3] was > 74.8 µM. It also gave a TGI [4] of 8.92 µM, a TGI [5] of 25.2 µM and a TGI [6] of 5.47 µM. For the same molecule, the TGI [7] was 5.91 µM, the TGI [8] was 9.55 µM and the TGI [9] was 16.7 µM. For the same molecule, the TGI [10] was 29.6 µM, the TGI [11] was 32.1 µM and the TGI [12] was > 60.5 µM. It also gave a TGI [13] of 11.8 µM, a TGI [14] of 1.27 µM and a TGI [15] of 33.4 µM. It also gave a TGI [16] of 6.34 µM, a TGI [17] of 49.7 µM and a TGI [18] of 6.22 µM. For the same molecule, the TGI [19] was 37 µM, the TGI [20] was > 100 µM and the TGI [21] was 29.3 µM. The TGI [22] was 5.26 µM, the TGI [23] was 22.6 µM and the TGI [24] was 12.4 µM. For the same molecule, the TGI [25] was 17.1 µM, the TGI [26] was 8.48 µM and the TGI [27] was 22.4 µM. For the same molecule, the TGI [28] was 20.1 µM, the TGI [29] was > 22.4 µM and the TGI [30] was 20.6 µM. For the same molecule, the TGI [31] was 49.5 µM, the TGI [32] was 40.5 µM and the TGI [33] was 2.95 µM. For the same molecule, the TGI [34] was 76 µM, the TGI [35] was 24.9 µM and the TGI [36] was 23.7 µM. It also gave a TGI [37] of 35.8 µM, a TGI [38] of 21.5 µM and a TGI [39] of 32.4 µM. It also gave a TGI [40] of 5.74 µM, a TGI [41] of 17.8 µM and a TGI [42] of 31.1 µM. For the same molecule, the TGI [43] was 34.7 µM, the TGI [45] was 44 µM and the TGI [46] was 32.1 µM. It also gave a TGI [47] of 3.92 µM, a TGI [48] of 33.6 µM and a TGI [49] of 17.8 µM. For the same molecule, the TGI [50] was 55.2 µM, the TGI [51] was 28.8 µM and the TGI [52] was > 100 µM. The TGI [53] was > 22.4 µM, the TGI [54] was 14 µM and the TGI [55] was 6.59 µM. It also gave a TGI [56] of 33.3 µM, a TGI [57] of 28 µM and a TGI [58] of 16.5 µM. For the same molecule, the TGI [59] was 15.8 µM.
